From patent US20100092389A1 (The General Hospital Corporation, priority 2008, published 2010)

Assays:
[1] = cited from earlier work
[2] = cited from earlier work; remark: listed apart in the source
[3] = in vivo; cited from earlier work
plaque neovessels = experiment: Correlative fluorescence microscopy of atheromata sections; set-up: species or system rabbit; conditions: x200, FIG. 4(f)
[4] = system: iliac atherosclerotic plaques; experiment: Catheter-based NIRF sensing of ICG enhancement of atherosclerotic plaques; format: in vivo, rabbit; conditions: immediately after injection; 6 mg ICG in 1.2 mL
Protocol: White rabbits (weight 3-3.5 kg) underwent balloon-denudation of iliac arteries and hypercholsterolemic diet in order to develop inflamed atheromata. The rabbits were placed on a high-cholesterol diet (1% cholesterol and 5% peanut oil) for 1 week prior to balloon injury. After an overnight fast, anesthesia was induced with IM ketamine (35 mg/kg) and xylazine (5 mg/kg). Anesthesia was continued using inhaled isoflurane (1-5% v/v) and supplemental 02. Next a 3F Fogarty arterial embolectomy catheter was advanced into the common iliac vessels of the rabbits. The balloon was inflated to tension (0.6-1.0 ml). A total of 3 pullbacks were performed in the left and right iliac artery, as well as the infrarenal aorta. Following injury, the introducer was removed and the left carotid artery was ligated. Rabbits continued on the high-cholesterol diet for 4-8 weeks. […]
Anesthesia was initiated as above, and a 5F introducer was placed into the right carotid artery and then delivered to the descending thoracic aorta under fluoroscopic guidance. […] The maximum voltage was recorded from each digitized pullback. The in vivo plaque target-to-background ratio (TBR) was thus calculated as TBR=(maximum voltage detected from all pullbacks)/(background voltage). […]

[5] = system: atherosclerotic plaques in the iliac and aorta; experiment: Ex vivo fluorescence reflectance imaging (FRI) of resected atherosclerotic aortoiliac vessels; set-up: species or system rabbit; conditions: excitation/emission 762 nm/800 nm
Protocol: Resected atherosclerotic aortoiliac vessels underwent fluorescence reflectance imaging (FRI) with an excitation/emission filter 762 nm/800 nm and a 5 second exposure time. Light images were also obtained with an exposure time of 100 msec. Region-of-interest (ROI) analysis was performed using visual identification of plaques and normal background on FRI images. The plaque target-to-background ratio was defined as: TBR=(plaque ROI signal)/(adjacent vessel background ROI signal).

For `CC1(C)C(/C=C/C=C/C=C/C=C2\N(CCCCS(=O)(=O)O)c3ccc4ccccc4c3C2(C)C)=[N+](CCCCS(=O)(=O)[O-])c2ccc3ccccc3c21` [ICG, Indocyanine green], the “time usable as intravascular angiographic agent” value ([1]; bound to proteins) is given as “about 40 minutes”, the route of excretion ([1]; in vivo) is given as “rapidly excreted unmetabolized into the bile” and the “time to elimination from the bloodstream” value ([1]; in vivo) is given as “about 2 hours”. For the same compound, the solubility in saline [2] was “not readily soluble in saline”, the “severe side effect incidence” value [3] was “less than 0.1%” and the “ICG signal in plaque neovessel by fluorescence microscopy” value (plaque neovessels) was “strong ICG signal in a plaque neovessel”. The “NIRF signal, voltage recordings from the intravascular space of the iliac arteries” value [4] was greater than 10 V and the “ex vivo plaque signal-to-background” value [5] was “very high plaque signal-to-background”.
